Experimental data published in ChEMBL document CHEMBL2401623, “Synthesis and antitumor activity of novel 3,4-diaryl squaric acid analogs” (Eur J Med Chem, 2013).
Calls of active or inactive are those of the source. The rule behind the calls is not given here.

Key:
MCF7 [1] = experiment: Cytotoxicity against human MCF7 cells assessed as growth inhibition after 72 hrs by MTT assay; format: functional, cell-based; details: MCF7, 72 h
CCRF-CEM = experiment: Cytotoxicity against human CEM cells assessed as growth inhibition after 72 hrs by MTT assay; format: functional, cell-based
HCT-116 = experiment: Cytotoxicity against human HCT116 cells assessed as growth inhibition after 72 hrs by MTT assay; format: functional, cell-based; details: HCT-116, 72 h
SMMC-7721 = experiment: Cytotoxicity against human SMMC7721 cells assessed as growth inhibition after 72 hrs by MTT assay; format: functional, cell-based; details: SMMC-7721, 72 h
Bel-7402 [2] = experiment: Ratio of combretastatin A-4 IC50 to compound IC50 for human Bel7402 cells; format: functional
MCF7 [3] = experiment: Cell cycle arrest in human MCF7 cells assessed as accumulation at G2/M phase after 24 hrs by propidium iodide staining-based flow cytometric analysis; format: functional
Bel-7402 [4] = experiment: Cytotoxicity against human Bel7402 cells assessed as growth inhibition after 72 hrs by MTT assay; format: functional, cell-based; details: Bel-7402, 72 h
SW1990 = experiment: Cytotoxicity against human SW1990 cells assessed as growth inhibition after 72 hrs by MTT assay; format: functional, cell-based; details: SW1990, 72 h
HepG2 = experiment: Cytotoxicity against human HepG2 cells assessed as growth inhibition after 72 hrs by MTT assay; format: functional, cell-based; details: HepG2, 72 h
MCF7 [5] = experiment: Ratio of combretastatin A-4 IC50 to compound IC50 for human MCF7 cells; format: functional
MCF7 [6] = experiment: Cell cycle arrest in human MCF7 cells assessed as accumulation at G2/M phase at 0.02 uM after 24 hrs by propidium iodide staining-based flow cytometric analysis; format: functional

**Q.** Which results are given for COc1ccc(/C=C\c2cc(OC)c(OC)c(OC)c2)cc1O [COMBRETASTATIN A4]?
**A.** IC50 (MCF7 [1]): 29 nM; IC50 (CCRF-CEM): 1.6 nM

**Q.** Which IC50 (CCRF-CEM) does the source give for COc1cc(-c2c(-c3cc(OC)c(OC)c(OC)c3)c(=O)c2=O)cc(OC)c1OC here?
**A.** Its IC50 is greater than 20000 nM.

**Q.** Which IC50 (CCRF-CEM) does the source give for COc1ccc(-c2c(-c3ccc(OC)cc3)c(=O)c2=O)cc1 here?
**A.** The IC50 was greater than 20000 nM.

**Q.** With COc1ccc(-c2c(-c3cc(OC)c(OC)c(OC)c3)c(=O)c2=O)cc1N as the compound, how does the IC50 (MCF7 [1]) read?
**A.** Its IC50 is 164 nM.

**Q.** What about the IC50 (HCT-116) of the same compound?
**A.** The IC50 was 5 nM.

**Q.** What about the IC50 (SMMC-7721) of the same compound?
**A.** Its IC50 is 190 nM.

**Q.** What about the “Ratio IC50” value (Bel-7402 [2]) of the same compound?
**A.** Its value is 122.

**Q.** What about the Activity (MCF7 [3]) of the same compound?
**A.** The Activity was “Active”.

**Q.** What about the IC50 (Bel-7402 [4]) of the same compound?
**A.** The IC50 was 14 nM.

**Q.** What about the IC50 (SW1990) of the same compound?
**A.** The IC50 was 1770 nM.

**Q.** And the IC50 (HepG2)?
**A.** Its IC50 is 5 nM.

**Q.** What about the IC50 (CCRF-CEM) of the same compound?
**A.** Its IC50 is 1.4 nM.

**Q.** COc1ccc(-c2c(-c3cc(OC)c(OC)c(OC)c3)c(=O)c2=O)cc1Cl was tested. Which IC50 (CCRF-CEM) did it give?
**A.** Its IC50 is 136 nM.

**Q.** How did the IC50 (CCRF-CEM) turn out when COc1ccc(-c2c(-c3cc(OC)c(OC)c(OC)c3)c(=O)c2=O)cc1 was run?
**A.** Its IC50 is 16 nM.

**Q.** Which IC50 (CCRF-CEM) does the source give for COc1ccc(-c2c(-c3ccc(OC)cc3OC)c(=O)c2=O)cc1 here?
**A.** Its IC50 is 1510 nM.

**Q.** How did the IC50 (SMMC-7721) turn out when COc1cc(-c2c(-c3ccc4cc[nH]c4c3)c(=O)c2=O)cc(OC)c1OC was run?
**A.** The IC50 was 2540 nM.

**Q.** What about the IC50 (Bel-7402 [4]) of the same compound?
**A.** The IC50 was 3620 nM.

**Q.** What about the IC50 (HepG2) of the same compound?
**A.** Its IC50 is 6 nM.

**Q.** What about the IC50 (CCRF-CEM) of the same compound?
**A.** The IC50 was 6.6 nM.

**Q.** Which IC50 (MCF7 [1]) does the source give for COc1ccc(-c2c(-c3cc(OC)c(OC)c(OC)c3)c(=O)c2=O)cc1F here?
**A.** Its IC50 is 5 nM.

**Q.** What about the IC50 (HCT-116) of the same compound?
**A.** The IC50 was 81 nM.

**Q.** And the IC50 (SMMC-7721)?
**A.** Its IC50 is 176 nM.

**Q.** What about the IC50 (Bel-7402 [4]) of the same compound?
**A.** Its IC50 is 13 nM.

**Q.** And the IC50 (SW1990)?
**A.** The IC50 was 27 nM.

**Q.** And the IC50 (HepG2)?
**A.** The IC50 was 105 nM.

**Q.** What about the IC50 (CCRF-CEM) of the same compound?
**A.** The IC50 was 11.5 nM.

**Q.** With COc1cc(-c2c(-c3ccc4[nH]ccc4c3)c(=O)c2=O)cc(OC)c1OC as the compound, how does the IC50 (SMMC-7721) read?
**A.** Its IC50 is 646 nM.

**Q.** What about the IC50 (Bel-7402 [4]) of the same compound?
**A.** The IC50 was 1500 nM.

**Q.** And the IC50 (HepG2)?
**A.** The IC50 was 6 nM.

**Q.** What about the IC50 (CCRF-CEM) of the same compound?
**A.** Its IC50 is 15.4 nM.

**Q.** For COc1ccc(-c2c(-c3cc(OC)c(OC)c(OC)c3)c(=O)c2=O)cc1OC, which IC50 (CCRF-CEM) is on record?
**A.** The IC50 was 210 nM.

**Q.** COc1ccc(-c2c(-c3cc(OC)c(OC)c(OC)c3)c(=O)c2=O)cc1[N+](=O)[O-] was tested. Which IC50 (CCRF-CEM) did it give?
**A.** Its IC50 is 12200 nM.

**Q.** With COc1ccc(-c2c(-c3c(OC)cc(OC)cc3OC)c(=O)c2=O)cc1 as the compound, how does the IC50 (CCRF-CEM) read?
**A.** Its IC50 is 850 nM.

**Q.** How did the IC50 (CCRF-CEM) turn out when COc1ccc(-c2c(-c3ccc(OC)c(OC)c3OC)c(=O)c2=O)cc1 was run?
**A.** The IC50 was 2480 nM.

**Q.** COc1ccc(-c2c(-c3cc(OC)c(OC)c(OC)c3)c(=O)c2=O)cc1O was tested. Which IC50 (MCF7 [1]) did it give?
**A.** Its IC50 is 6 nM.

**Q.** And the IC50 (HCT-116)?
**A.** Its IC50 is 5 nM.

**Q.** And the “Ratio IC50” value (MCF7 [5])?
**A.** Its value is 5.

**Q.** What about the IC50 (SMMC-7721) of the same compound?
**A.** Its IC50 is 1520 nM.

**Q.** What about the “Ratio IC50” value (Bel-7402 [2]) of the same compound?
**A.** Its value is 5.

**Q.** What about the IC50 (Bel-7402 [4]) of the same compound?
**A.** Its IC50 is 309 nM.

**Q.** And the IC50 (SW1990)?
**A.** The IC50 was 245 nM.

**Q.** What about the IC50 (HepG2) of the same compound?
**A.** Its IC50 is 14 nM.

**Q.** What about the IC50 (CCRF-CEM) of the same compound?
**A.** The IC50 was 1.7 nM.

**Q.** What about the Activity (MCF7 [6]) of the same compound?
**A.** The Activity was “Active”.

**Q.** For COc1ccc(-c2c(-c3cc(OC)c(OC)c(OC)c3)c(=O)c2=O)cc1OC(C)=O, which IC50 (CCRF-CEM) is on record?
**A.** Its IC50 is 1.8 nM.

**Q.** How did the IC50 (CCRF-CEM) turn out when COc1cc(-c2c(-c3ccccc3)c(=O)c2=O)cc(OC)c1OC was run?
**A.** Its IC50 is 16100 nM.

**Q.** With COc1ccc(-c2c(-c3ccc(OC)c(OC)c3)c(=O)c2=O)cc1 as the compound, how does the IC50 (CCRF-CEM) read?
**A.** The IC50 was 12700 nM.

**Q.** How did the IC50 (CCRF-CEM) turn out when COc1ccc(-c2c(-c3cc(OC)c(OC)c(OC)c3)c(=O)c2=O)c(OC)c1 was run?
**A.** The IC50 was 1770 nM.
